Experimental data taken from publication PMC10287695, “Non-covalent inhibitors of thioredoxin glutathione reductase with schistosomicidal activity in vivo” (Nature Communications, 2023).
pIC50: −log10 of the molar value.

What was measured:
[1] = target: T1, Human TrxR1 (Homo sapiens, UniProt Q16881); test: Human TrxR1 enzyme inhibition (DTNB reduction); type: biochemical; conditions: for % inhibition: hsTrxR; for % inhibition / hsTrxR % inhibition: 15 minutes pre-incubation
T1 construct: made in house
T1 sequence (Q16881 1-499 isoform Q16881-5): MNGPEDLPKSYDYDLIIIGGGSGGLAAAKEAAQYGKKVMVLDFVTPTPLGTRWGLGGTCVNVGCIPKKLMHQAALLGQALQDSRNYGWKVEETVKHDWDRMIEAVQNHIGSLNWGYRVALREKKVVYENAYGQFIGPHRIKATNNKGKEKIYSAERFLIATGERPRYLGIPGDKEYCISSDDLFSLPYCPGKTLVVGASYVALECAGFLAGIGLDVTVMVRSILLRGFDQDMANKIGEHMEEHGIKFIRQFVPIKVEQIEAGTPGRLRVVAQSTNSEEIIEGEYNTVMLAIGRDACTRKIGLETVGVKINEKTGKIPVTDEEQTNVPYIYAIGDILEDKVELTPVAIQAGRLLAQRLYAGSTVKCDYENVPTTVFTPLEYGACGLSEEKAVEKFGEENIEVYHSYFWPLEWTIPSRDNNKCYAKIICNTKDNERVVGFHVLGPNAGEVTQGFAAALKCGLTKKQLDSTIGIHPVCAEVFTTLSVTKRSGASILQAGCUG
Procedure: (§1) Recombinant TGR, human TrxR1, B. malayi (Bm)TrxR and human GR proteins were expressed and purified as described[20],[69],[79]. The codon optimized sequence for P. falciparum (PfTrxR, https://www.ncbi.nlm.nih.gov/protein/CAA60574.1/) with an N-terminal 6-His tag was synthesized and inserted into pET15b (GenScript) and expressed in BL21 (DE3) cells and purified as described for human GR[20]. TGR and TrxR enzyme inhibition assays were performed in triplicate at 25 °C as described[20] in 0.1 M potassium phosphate (pH 7.4), 10 mM EDTA, 100 µM NADPH and 0.01% Tween-20. […] The reaction was started with addition of an equal volume of DTNB (6 mM) and NADPH (100 µM) and the increase in A412 during the first 3 min was recorded. […] The reaction was preincubated for 15 min. Activity was initiated with the addition of 1 mM GSSG and 100 μM NADPH and initial rates of NADPH oxidation were monitored at 340 nm. The reactions were done in triplicate. The IC50 was calculated in GraphPad Prism.

[2] = target: T2, S. mansoni TGR (Schistosoma mansoni, UniProt Q962Y6); test: S. mansoni TGR enzyme inhibition (DTNB reduction); type: biochemical; conditions: for % inhibition: TGR
T2 construct: made in house
T2 sequence (Q962Y6 1-598): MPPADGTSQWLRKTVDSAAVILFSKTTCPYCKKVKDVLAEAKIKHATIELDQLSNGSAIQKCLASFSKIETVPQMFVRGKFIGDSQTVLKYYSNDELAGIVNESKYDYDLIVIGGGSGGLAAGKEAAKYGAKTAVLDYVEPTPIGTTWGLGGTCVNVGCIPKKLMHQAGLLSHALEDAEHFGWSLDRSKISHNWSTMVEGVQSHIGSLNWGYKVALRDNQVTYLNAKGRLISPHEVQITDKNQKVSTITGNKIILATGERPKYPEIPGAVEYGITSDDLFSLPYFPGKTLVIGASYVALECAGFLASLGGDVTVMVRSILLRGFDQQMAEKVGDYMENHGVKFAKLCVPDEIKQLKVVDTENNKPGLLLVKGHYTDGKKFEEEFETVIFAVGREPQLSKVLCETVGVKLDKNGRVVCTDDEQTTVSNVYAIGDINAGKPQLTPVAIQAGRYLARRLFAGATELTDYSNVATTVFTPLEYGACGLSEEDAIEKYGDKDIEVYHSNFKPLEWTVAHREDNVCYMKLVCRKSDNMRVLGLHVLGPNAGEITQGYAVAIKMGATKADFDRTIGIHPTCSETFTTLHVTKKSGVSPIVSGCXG
Procedure: as §1

[3] = test system: Vero cells; test: Cytotoxicity in mammalian cells (Cell Titer Glo); type: cell-based
Procedure: Following overnight incubation, formulated DMSO-compound stock solutions were diluted with DMEM at <1% DMSO final concentrations. […] Vero cells treated similarly with different concentrations of PZQ, MZM and AF (Cayman Chemicals) were used as positive controls.

[4] = target: T3, Human GR (Homo sapiens, UniProt P00390); test: Human GR enzyme inhibition (GSSG reduction, NADPH oxidation); type: biochemical; conditions: for % inhibition: hGR
T3 construct: made in house
T3 sequence (P00390 44-522): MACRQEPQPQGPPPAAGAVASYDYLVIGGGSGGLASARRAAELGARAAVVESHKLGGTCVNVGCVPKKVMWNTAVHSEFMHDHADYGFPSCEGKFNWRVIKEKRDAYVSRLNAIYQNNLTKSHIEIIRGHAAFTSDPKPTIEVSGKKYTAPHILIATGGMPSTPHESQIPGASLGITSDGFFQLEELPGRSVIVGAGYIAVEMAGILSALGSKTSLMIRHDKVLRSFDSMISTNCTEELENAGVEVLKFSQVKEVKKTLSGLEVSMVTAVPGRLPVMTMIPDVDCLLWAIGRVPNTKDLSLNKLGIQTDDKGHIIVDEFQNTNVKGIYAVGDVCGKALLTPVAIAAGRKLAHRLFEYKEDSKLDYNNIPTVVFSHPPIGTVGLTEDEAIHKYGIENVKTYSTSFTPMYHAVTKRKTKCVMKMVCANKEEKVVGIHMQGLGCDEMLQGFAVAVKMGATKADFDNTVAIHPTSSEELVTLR
Procedure: Recombinant TGR, human TrxR1, B. malayi (Bm)TrxR and human GR proteins were expressed and purified as described[20],[69],[79]. The codon optimized sequence for P. falciparum (PfTrxR, https://www.ncbi.nlm.nih.gov/protein/CAA60574.1/) with an N-terminal 6-His tag was synthesized and inserted into pET15b (GenScript) and expressed in BL21 (DE3) cells and purified as described for human GR[20]. TGR and TrxR enzyme inhibition assays were performed in triplicate at 25 °C as described[20] in 0.1 M potassium phosphate (pH 7.4), 10 mM EDTA, 100 µM NADPH and 0.01% Tween-20. TGR, human TrxR1 and BmTrxR (all at 4 nM) and PfTrxR (50 nM) were preincubated with the compounds for 15 min. The reaction was started with addition of an equal volume of DTNB (6 mM) and NADPH (100 µM) and the increase in A412 during the first 3 min was recorded. […] […] Activity was initiated with the addition of 1 mM GSSG and 100 μM NADPH and initial rates of NADPH oxidation were monitored at 340 nm. The reactions were done in triplicate. The IC50 was calculated in GraphPad Prism.

[5] = 15 minutes pre-incubation, compound 15 µM
[6] = 15 minutes pre-incubation, compound 30 µM
[7] = 15 minutes pre-incubation, compound 66.7 µM
[8] = 6 hours pre-incubation, compound 15 µM
[9] = 6 hours pre-incubation, compound 30 µM
[10] = 6 hours pre-incubation, compound 66.7 µM
[11] = 15 minutes pre-incubation, 15 µM
[12] = 15 minutes pre-incubation, 30 µM
[13] = 15 minutes pre-incubation, 66.7 µM
[14] = 6 hours pre-incubation, 66.7 µM

SMILES	% inhibition [4, 5] [%]	% inhibition [4, 6] [%]	% inhibition [4, 7] [%]	% inhibition [4, 8] [%]	% inhibition [4, 9] [%]	% inhibition [4, 10] [%]	% inhibition ([1]; compound 15 µM) [%]	% inhibition ([1]; compound 30 µM) [%]	% inhibition ([1]; compound 66.7 µM) [%]	% inhibition [2, 5] [%]	% inhibition [2, 6] [%]	% inhibition [2, 7] [%]	% inhibition [2, 8] [%]	% inhibition [2, 9] [%]	% inhibition [2, 10] [%]	% viability ([3]; Vero cells, Conc. 5 µM) [%]	% viability ([3]; Vero cells, Conc. 10 µM) [%]	% viability ([3]; Vero cells, Conc. 25 µM) [%]	% viability ([3]; Vero cells, Conc. 35 µM) [%]	% viability ([3]; Vero cells, Conc. 50 µM) [%]	also measured
CC(=O)OC[C@H]1O[C@@H]([S-])[C@H](OC(C)=O)[C@@H](OC(C)=O)[C@@H]1OC(C)=O.CCP(CC)CC.[Au+] [AF, auranofin, reference compound]	–	–	–	–	–	–	–	–	–	–	–	–	–	–	–	–	–	–	–	–	pIC50 ([1]; 15 min preincubation (enzyme + 100 µM NADPH + compound), read-out: Human TrxR1 IC50): 7.70; pIC50 ([2]; 15 min preincubation (enzyme + 100 µM NADPH + compound)): 8.15; % viability ([3]; 0.5 µM): 57.3284%; % viability ([3]; 1 µM): 33.3378%; % viability ([3]; 5 µM): 0.2783%; % viability ([3]; 10 µM): 0.2356%; % viability ([3]; 20 µM): 0.164%; % viability ([3]; 30 µM): 0.07463%; LD50 ex vivo VERO ([3]; 24-hour exposure): 0.59 ± 0.11 µM
Cc1oc(-c2ccccc2)nc1CN[C@@H]1C[C@@H]2C[C@H]([C@H]1C)C2(C)C [C3]	-2.234	-5.497	-7.805	-0.8033	-0.8345	-0.3955	11.8305	16.5848	23.0303	3.671	7.41	17.804	23.6178	33.5098	42.7576	99.3244	93.7147	77.3582	52.4878	28.6792	–
Cc1oc(-c2ccc3ccccc3c2)nc1CNC1CCCCCC1 [C5]	-0.1784	-0.6429	-2.462	-0.4334	-1.271	-0.3907	4.223	2.584	4.769	26.4295	32.2766	38.9031	38.3649	50.2366	73.0458	99.0699	99.036	93.1095	87.9829	82.6807	–
C[C@@H]1[C@H]2C[C@@H](C[C@H]1NCc1nc3ccccc3n1C)C2(C)C [C12]	–	–	–	–	–	–	–	–	–	–	–	–	–	–	–	–	–	–	–	–	hGR % inhibition [4, 11]: -0.9179%; hGR % inhibition [4, 12]: -2.193%; hGR % inhibition [4, 13]: -0.3071%; hGR % inhibition ([4]; 6 hours pre-incubation, 15 µM): -3.5243%; hGR % inhibition ([4]; 6 hours pre-incubation, 30 µM): -2.022%; hGR % inhibition [4, 14]: -0.874%; hsTrxR % inhibition ([1]; 15 µM): 0.08203%; hsTrxR % inhibition ([1]; 30 µM): 0.1317%; hsTrxR % inhibition ([1]; 66.7 µM): 0.4216%; TGR % inhibition [2, 11]: 0.03253%; TGR % inhibition [2, 12]: 0.1888%; TGR % inhibition [2, 13]: 0.4169%; TGR % inhibition ([2]; 6 hours pre-incubation, 15 µM): 0.1402%; TGR % inhibition ([2]; 6 hours pre-incubation, 30 µM): 1.567%; TGR % inhibition [2, 14]: 2.052%
